{"source": "patent US7744897B2", "about": "“Human immunodeficiency virus gp41 mimetibody polypeptides” (priority 2003, dated 2010)", "key": {"[1]": {"conditions": "human serum, spiked at 1 mg/ml, 72 hours at 37° C., HPLC", "description": "The stability of the T-1249 mimetibody in vitro was determined using HPLC. The T-1249 mimetibody (SEQ ID NO: 1) was spiked into human serum at 1 mg/ml. Using a C18 chromatography matrix, a peak corresponding to the T-1249 mimetibody was resolved from other serum proteins. […] Samples were taken at 0, 5, 25, and 72 hours after the addition of the T-1249 mimetibody into human serum. A background peak was used as a reference for each sample."}, "[2]": {"tested_on": "other isolates of HIV including an enfuvirtide-resistant strain", "conditions": "similar experiments"}, "HIV": {"tested_on": "HIV", "conditions": "clinical trials; cited from earlier work"}, "[3]": {"conditions": "cited from earlier work"}}, "note": "Read-outs that look alike come from different tables or passages of the source.", "data": [{"molecule": "T-1249 mimetibody: Formula (II) polypeptide: V1 QIQ, single copy of T-1249, IgG J region, IgG1 hinge, CH2 and CH3; SEQ ID NO: 1", "values": [{"measurement": "T-1249 mimetibody remained intact", "setting": "[1]", "value": "more than 93%"}, {"measurement": "Activity against other isolates of HIV including an enfuvirtide-resistant strain", "setting": "[2]", "value": "active"}]}, {"molecule": "enfuvirtide", "values": [{"measurement": "Reduction of viral levels in infected patients", "setting": "HIV", "value": "1-2 logs"}, {"measurement": "plasma half-life", "setting": "[3]; human, plasma", "value": "about 1.8 hours"}]}, {"molecule": "CC[C@H](C)[C@H](NC(=O)[C@H](CCC(N)=O)NC(=O)[C@H](C)NC(=O)[C@H](CCC(N)=O)NC(=O)[C@H](CCC(=O)O)NC(=O)[C@H](CC(C)C)NC(=O)[C@H](CC(C)C)NC(=O)[C@H](C)NC(=O)[C@@H](NC(=O)[C@@H](NC(=O)[C@H](CCCCN)NC(=O)[C@H](CCC(N)=O)NC(=O)[C@H](CCC(=O)O)NC(=O)[C@H](Cc1c[nH]c2ccccc12)NC(=O)[C@H](CCC(=O)O)NC(=O)[C@H](CCC(N)=O)NC(=O)[C@H](Cc1c[nH]c2ccccc12)NC(C)=O)[C@@H](C)CC)[C@@H](C)O)C(=O)N[C@@H](CCC(N)=O)C(=O)N[C@@H](CCC(N)=O)C(=O)N[C@@H](CCC(=O)O)C(=O)N[C@@H](CCCCN)C(=O)N[C@@H](CC(N)=O)C(=O)N[C@@H](CCC(=O)O)C(=O)N[C@@H](Cc1ccc(O)cc1)C(=O)N[C@@H](CCC(=O)O)C(=O)N[C@@H](CC(C)C)C(=O)N[C@@H](CCC(N)=O)C(=O)N[C@@H](CCCCN)C(=O)N[C@@H](CC(C)C)C(=O)N[C@@H](CC(=O)O)C(=O)N[C@@H](CCCCN)C(=O)N[C@@H](Cc1c[nH]c2ccccc12)C(=O)N[C@@H](C)C(=O)N[C@@H](CO)C(=O)N[C@@H](CC(C)C)C(=O)N[C@@H](Cc1c[nH]c2ccccc12)C(=O)N[C@@H](CCC(=O)O)C(=O)N[C@@H](Cc1c[nH]c2ccccc12)C(=O)N[C@@H](Cc1ccccc1)C(N)=O", "note": "[T-1249 peptide]", "values": [{"measurement": "plasma half-life", "setting": "[3]; in vivo", "value": "9 to 14", "unit": "h"}]}]}
